According to patent US20150105252A1, “SUBSTITUTED PYRAZOLES AS HERBICIDES” (E I DU PONT DE NEMOURS AND COMPANY, priority 2013, published 2015):

What was measured:
pigweed [1] = test: Test A postemergence; assay type: in vivo, Amaranthus retroflexus
Method in brief: (§1)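 Pre- and postemergence greenhouse test; loam+sand; cpd in non-phytotox. solvent/surfactant; post at 1–2 leaf, 2–10 cm; visual score ~10 d, 0 = none, 100 = complete control.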

sedge, umbrella = test: Test B flood; assay type: in vivo, Cyperus difformis; settings: 250 g ai/ha, visual rating on 0 to 100 scale (0 no effect, 100 complete control), 13 to 15 days
Protocol: (§2) Seeds selected from rice (Oryza sativa), sedge, umbrella (small-flower umbrella sedge Cyperus difformis), ducksalad (Heteranthera limosa), and barnyardgrass (Echinochloa crus-galli) were grown to the 2-leaf stage for testing. At time of treatment, test pots were flooded to 3 cm above the soil surface, treated by application of test compounds directly to the paddy water, and then maintained at that water depth for the duration of the test.
(§3) Treated plants and controls were maintained in a greenhouse for 13 to 15 days, after which time all species were compared to controls and visually evaluated. Plant response ratings, summarized in Table B, are based on a scale of 0 to 100 where 0 is no effect and 100 is complete control. A dash (-) response means no test result.

velvetleaf [2] = test: Test A preemergence; assay type: in vivo, Abutilon theophrasti
Method in brief: as §1

foxtail, giant [3] = test: Test A preemergence; assay type: in vivo, Setaria faberii
Method in brief: as §1

barnyardgrass [4] = test: Test A postemergence; assay type: in vivo, Echinochloa crus-galli; settings: Postemergence
Method in brief: as §1

crabgrass, large [5] = test: Test A postemergence; assay type: in vivo, Digitaria sanguinalis
Method in brief: as §1

crabgrass, large [6] = test: Test A preemergence; assay type: in vivo, Digitaria sanguinalis
Method in brief: as §1

foxtail, giant [7] = test: Test A postemergence; assay type: in vivo, Setaria faberii
Method in brief: as §1

wheat [8] = test: Test A postemergence; assay type: in vivo, Triticum aestivum
Method in brief: as §1

pigweed [9] = test: Test A preemergence; assay type: in vivo, Amaranthus retroflexus
Method in brief: as §1

wheat [10] = test: Test A preemergence; assay type: in vivo, Triticum aestivum; settings: preemergence
Method in brief: as §1

morningglory [11] = test: Test A preemergence; assay type: in vivo, Ipomoea spp.
Method in brief: as §1

velvetleaf [12] = test: Test A postemergence; assay type: in vivo, Abutilon theophrasti
Method in brief: as §1

barnyardgrass [13] = test: Test B flood; assay type: in vivo, Echinochloa crus-galli; settings: 250 g ai/ha, visual rating on 0 to 100 scale (0 no effect, 100 complete control), 13 to 15 days
Protocol: as §2, §3

rice = test: Test B flood; assay type: in vivo, Oryza sativa; settings: 250 g ai/ha, visual rating on 0 to 100 scale (0 no effect, 100 complete control), 13 to 15 days
Protocol: as §2, §3

corn [14] = test: Test A postemergence; assay type: in vivo, Zea mays
Method in brief: as §1

ducksalad = test: Test B flood; assay type: in vivo, Heteranthera limosa; settings: 250 g ai/ha, visual rating on 0 to 100 scale (0 no effect, 100 complete control), 13 to 15 days
Protocol: as §2, §3

morningglory [15] = test: Test A postemergence; assay type: in vivo, Ipomoea spp.
Method in brief: as §1

corn [16] = test: Test A preemergence; assay type: in vivo, Zea mays
Method in brief: as §1

barnyardgrass [17] = test: Test A preemergence; assay type: in vivo, Echinochloa crus-galli
Method in brief: as §1

[18] = Postemergence, 500 g ai/ha, visual rating after approx. 10 days, 0 to 100 scale (0 no effect, 100 complete control)
[19] = postemergence, 125 g ai/ha, about 10 days, visual rating on 0 to 100 scale (0 no effect, 100 complete control)
[20] = Preemergence, 500 g ai/ha, 0 to 100 scale, 0 no effect, 100 complete control
[21] = preemergence, 125 g ai/ha, visual injury, 0 to 100 scale, approx. 10 days
[22] = 125 g ai/ha, 0 to 100 scale, 0 no effect, 100 complete control
[23] = 500 g ai/ha, visual rating after approx. 10 days, 0 to 100 scale (0 no effect, 100 complete control)
[24] = 125 g ai/ha, visual injury, 0 to 100 scale, approx. 10 days
[25] = 500 g ai/ha, visual injury after approx. 10 days, 0 to 100 scale (0 no effect, 100 complete control)
[26] = preemergence, 500 g ai/ha, visual injury after approx. 10 days, 0 to 100 scale (0 no effect, 100 complete control)

Compound	Pigweed plant response rating (pigweed [1]; [18])	Pigweed plant response rating (pigweed [1]; [19])	Plant response rating, Sedge, Umbrella (sedge, umbrella)	Velvetleaf plant response rating (velvetleaf [2]; [21])	Foxtail, Giant plant response rating (foxtail, giant [3]; [21])	Barnyardgrass plant response rating (barnyardgrass [4]; [22])	Barnyardgrass plant response rating (barnyardgrass [4]; [23])	Crabgrass, Large plant response rating (crabgrass, large [5]; [18])	Crabgrass, Large plant response rating (crabgrass, large [5]; [19])	Crabgrass, Large plant response rating (crabgrass, large [6]; [21])	Foxtail, Giant plant response rating (foxtail, giant [7]; [18])	Foxtail, Giant plant response rating (foxtail, giant [7]; [19])	Wheat plant response rating (wheat [8]; [18])	Wheat plant response rating (wheat [8]; [19])	Pigweed plant response rating (pigweed [9]; [21])	Wheat plant response rating (wheat [10]; [24])	Wheat plant response rating (wheat [10]; [25])	Morningglory plant response rating (morningglory [11]; [21])	Velvetleaf plant response rating (velvetleaf [12]; [18])	Velvetleaf plant response rating (velvetleaf [12]; [19])	other results
Cc1cc(C(=O)NCC(F)(F)F)nn1Oc1ccnc(C(F)(F)F)c1 [Compound 79]	60	40	0	0	10	0	30	60	20	60	30	10	20	0	30	0	20	0	50	40	Velvetleaf plant response rating (velvetleaf [2]; [20]): 60; Foxtail, Giant plant response rating (foxtail, giant [3]; [20]): 90; Crabgrass, Large plant response rating (crabgrass, large [6]; [20]): 90; Pigweed plant response rating (pigweed [9]; [20]): 100; Morningglory plant response rating (morningglory [11]; [20]): 50; Plant response rating, Barnyardgrass (barnyardgrass [13]): 0; Plant response rating, Rice (rice): 0; Corn plant response rating (corn [14]; [18]): 10; Corn plant response rating (corn [14]; [19]): 10; Plant response rating, Ducksalad (ducksalad): 0; Morningglory plant response rating (morningglory [15]; [18]): 70; Morningglory plant response rating (morningglory [15]; [19]): 30; Corn plant response rating (corn [16]; [20]): 0; Corn plant response rating (corn [16]; [21]): 0; Barnyardgrass plant response rating (barnyardgrass [17]; [20]): 70; Barnyardgrass plant response rating (barnyardgrass [17]; [21]): 10
Cc1cc(C(=O)NC2CC2)nn1Oc1ccnc(C(F)(F)F)c1 [Compound 81]	50	30	0	0	30	0	20	40	10	60	30	10	0	0	40	0	10	0	30	20	Velvetleaf plant response rating (velvetleaf [2]; [20]): 60; Foxtail, Giant plant response rating (foxtail, giant [3]; [20]): 100; Crabgrass, Large plant response rating (crabgrass, large [6]; [20]): 100; Pigweed plant response rating (pigweed [9]; [20]): 90; Morningglory plant response rating (morningglory [11]; [20]): 60; Plant response rating, Barnyardgrass (barnyardgrass [13]): 0; Plant response rating, Rice (rice): 0; Corn plant response rating (corn [14]; [18]): 20; Corn plant response rating (corn [14]; [19]): 10; Plant response rating, Ducksalad (ducksalad): 0; Morningglory plant response rating (morningglory [15]; [18]): 50; Morningglory plant response rating (morningglory [15]; [19]): 30; Corn plant response rating (corn [16]; [20]): 0; Corn plant response rating (corn [16]; [21]): 0; Barnyardgrass plant response rating (barnyardgrass [17]; [20]): 70; Barnyardgrass plant response rating (barnyardgrass [17]; [21]): 20
CCCNC(=O)c1cc(CC)n(Oc2ccnc(C(F)(F)F)c2)n1 [Compound 82]	30	10	75	0	40	20	50	60	30	70	60	10	50	0	0	10	60	10	20	10	Velvetleaf plant response rating (velvetleaf [2]; [20]): 20; Foxtail, Giant plant response rating (foxtail, giant [3]; [20]): 100; Crabgrass, Large plant response rating (crabgrass, large [6]; [20]): 100; Pigweed plant response rating (pigweed [9]; [20]): 60; Morningglory plant response rating (morningglory [11]; [20]): 50; Plant response rating, Barnyardgrass (barnyardgrass [13]): 0; Plant response rating, Rice (rice): 0; Corn plant response rating (corn [14]; [18]): 60; Corn plant response rating (corn [14]; [19]): 20; Plant response rating, Ducksalad (ducksalad): 30; Morningglory plant response rating (morningglory [15]; [18]): 60; Morningglory plant response rating (morningglory [15]; [19]): 50; Corn plant response rating (corn [16]; [20]): 60; Corn plant response rating (corn [16]; [21]): 20; Barnyardgrass plant response rating (barnyardgrass [17]; [20]): 80; Barnyardgrass plant response rating (barnyardgrass [17]; [21]): 30
CCCCNC(=O)c1cc(C)n(Oc2ccnc(C(F)(F)F)c2)n1 [Compound 85]	10	0	0	0	0	0	10	20	10	20	20	0	0	0	0	0	0	0	10	0	Velvetleaf plant response rating (velvetleaf [2]; [20]): 0; Foxtail, Giant plant response rating (foxtail, giant [3]; [20]): 50; Crabgrass, Large plant response rating (crabgrass, large [6]; [20]): 80; Pigweed plant response rating (pigweed [9]; [20]): 0; Morningglory plant response rating (morningglory [11]; [20]): 10; Plant response rating, Barnyardgrass (barnyardgrass [13]): 0; Plant response rating, Rice (rice): 0; Corn plant response rating (corn [14]; [18]): 10; Corn plant response rating (corn [14]; [19]): 0; Plant response rating, Ducksalad (ducksalad): 0; Morningglory plant response rating (morningglory [15]; [18]): 40; Morningglory plant response rating (morningglory [15]; [19]): 10; Corn plant response rating (corn [16]; [20]): 0; Corn plant response rating (corn [16]; [21]): 0; Barnyardgrass plant response rating (barnyardgrass [17]; [20]): 30; Barnyardgrass plant response rating (barnyardgrass [17]; [21]): 0
CCCNC(=O)c1cc(CC)n(Cc2cccc(C(F)(F)F)n2)n1 [Compound 88]	10	0	0	0	0	0	0	10	0	0	0	0	0	0	0	0	0	0	10	0	Velvetleaf plant response rating (velvetleaf [2]; [26]): 0; Foxtail, Giant plant response rating (foxtail, giant [3]; [26]): 0; Crabgrass, Large plant response rating (crabgrass, large [6]; [26]): 30; Pigweed plant response rating (pigweed [9]; [26]): 0; Morningglory plant response rating (morningglory [11]; [26]): 10; Plant response rating, Barnyardgrass (barnyardgrass [13]): 0; Plant response rating, Rice (rice): 0; Corn plant response rating (corn [14]; [18]): 10; Corn plant response rating (corn [14]; [19]): 0; Plant response rating, Ducksalad (ducksalad): 0; Morningglory plant response rating (morningglory [15]; [18]): 10; Morningglory plant response rating (morningglory [15]; [19]): 10; Corn plant response rating (corn [16]; [21]): 0; Corn plant response rating (corn [16]; [26]): 0; Barnyardgrass plant response rating (barnyardgrass [17]; [21]): 0; Barnyardgrass plant response rating (barnyardgrass [17]; [26]): 0
